From ChEMBL document CHEMBL1201862, “PubChem BioAssay data set” (2004)
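Results reflect a 48-hour exposure of cells in 96-well plates to compound at five concentrations. GI50 = concentration required for 50% inhibition of growth.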 Active and inactive are the calls of the source. No stated cut-off is given here; in the data, active = GI50 up to about 1.1 µM and inactive = higher. Where a SMILES comes first, the peptide text is derived from it. The star is where a group is joined. Boc = CC(C)(C)OC(=O)*

Legend:
Experiment in all cases: NCI tumour cell line growth inhibition, 48 h
[1] = system: 786-0
[2] = system: A498
[3] = system: A549
[4] = system: ACHN
[5] = system: CAKI-1
[6] = system: CCRF-CEM
[7] = system: COLO 205
[8] = system: DLD-1
[9] = system: DMS-114
[10] = system: DMS-273
[11] = system: EKVX
[12] = system: HCC 2998
[13] = system: HCT-116
[14] = system: HCT-15
[15] = system: HL-60
[16] = system: HOP-18
[17] = system: HOP-62
[18] = system: HOP-92
[19] = system: HT-29
[20] = system: IGROV-1
[21] = system: K562
[22] = system: KM-20L2
[23] = system: KM12
[24] = system: LOX IMVI
[25] = system: LXFL 529
[26] = system: M14
[27] = system: M19-MEL
[28] = system: MCF7
[29] = system: MOLT-4
[30] = system: Malme-3M
[31] = system: NCI-H226
[32] = system: NCI-H23
[33] = system: NCI-H460
[34] = system: NCI-H522
[35] = system: NCI/ADR-RES
[36] = system: OVCAR-3
[37] = system: OVCAR-4
[38] = system: OVCAR-5
[39] = system: OVCAR-8
[40] = system: RPMI-8226
[41] = system: RXF 393
[42] = system: RXF 631
[43] = system: SF-268
[44] = system: SF-295
[45] = system: SF-539
[46] = system: SK-MEL-28
[47] = system: SK-MEL-2
[48] = system: SK-MEL-5
[49] = system: SK-OV-3
[50] = system: SN12C
[51] = system: SNB-19
[52] = system: SNB-75
[53] = system: SNB-78
[54] = system: SR
[55] = system: SW-620
[56] = system: TK-10
[57] = system: U-251
[58] = system: UACC-257
[59] = system: UACC-62
[60] = system: UO-31
[61] = system: XF498

## ClCCN(CC#CCCCC#CCN(CCCl)CCCl)CCCl
[1]
  GI50: 4.61 µM (inactive)
[2]
  GI50: 12.3 µM (inactive)
[3]
  GI50: 8.99 µM (inactive)
[4]
  GI50: 3.82 µM (inactive)
[5]
  GI50: 7.67 µM (inactive)
[6]
  GI50: 2.3 µM (inactive)
[7]
  GI50: 15.6 µM (inactive)
[8]
  GI50: 15.6 µM (inactive)
[9]
  GI50: 3.01 µM (inactive)
[10]
  GI50: 4 µM (inactive)
[11]
  GI50: 22.8 µM (inactive)
[12]
  GI50: 18.4 µM (inactive)
[13]
  GI50: 10.4 µM (inactive)
[14]
  GI50: 12.4 µM
[15]
  GI50: 1.26 µM (inactive)
[16]
  GI50: 17.8 µM (inactive)
[17]
  GI50: 11.3 µM (inactive)
[18]
  GI50: 18.4 µM (inactive)
[19]
  GI50: 11.4 µM (inactive)
[20]
  GI50: 14.2 µM (inactive)
[21]
  GI50: 11 µM (inactive)
[22]
  GI50: 13.8 µM (inactive)
[23]
  GI50: 19.2 µM (inactive)
[24]
  GI50: 5.86 µM (inactive)
[25]
  GI50: 12.4 µM (inactive)
[26]
  GI50: 14.5 µM (inactive)
[27]
  GI50: 12.1 µM (inactive)
[28]
  GI50: 8.75 µM (inactive)
[29]
  GI50: 1.66 µM (inactive)
[30]
  GI50: 14.2 µM (inactive)
[31]
  GI50: 12.9 µM (inactive)
[32]
  GI50: 6.85 µM (inactive)
[33]
  GI50: 2.73 µM (inactive)
[34]
  GI50: 8.3 µM (inactive)
[35]
  GI50: 14.5 µM (inactive)
[36]
  GI50: 11.6 µM (inactive)
[37]
  GI50: 20.6 µM (inactive)
[38]
  GI50: 11.7 µM (inactive)
[39]
  GI50: 11 µM (inactive)
[40]
  GI50: 2.79 µM (inactive)
[41]
  GI50: 15.5 µM (inactive)
[42]
  GI50: 10.8 µM (inactive)
[43]
  GI50: 8.85 µM (inactive)
[44]
  GI50: 11.6 µM (inactive)
[45]
  GI50: 8.36 µM (inactive)
[46]
  GI50: 19.1 µM (inactive)
[47]
  GI50: 13 µM (inactive)
[48]
  GI50: 11.3 µM (inactive)
[49]
  GI50: 9.31 µM (inactive)
[50]
  GI50: 7.21 µM (inactive)
[51]
  GI50: 13.6 µM (inactive)
[52]
  GI50: 10.3 µM (inactive)
[53]
  GI50: 17.2 µM (inactive)
[54]
  GI50: 2.03 µM (inactive)
[55]
  GI50: 10.2 µM (inactive)
[56]
  GI50: 22.8 µM (inactive)
[57]
  GI50: 8.43 µM (inactive)
[58]
  GI50: 13.8 µM (inactive)
[59]
  GI50: 4.98 µM (inactive)
[60]
  GI50: 25.8 µM (inactive)

## O=C1C(=O)N(c2ccc(Cl)cc2)C(=O)C(=O)C1c1nc2ccccc2o1
[1]
  GI50: > 100 µM (inactive)
[2]
  GI50: > 100 µM (inactive)
[3]
  GI50: > 100 µM (inactive)
[4]
  GI50: > 100 µM (inactive)
[5]
  GI50: > 100 µM (inactive)
[6]
  GI50: > 100 µM (inactive)
[7]
  GI50: > 100 µM (inactive)
[8]
  GI50: > 100 µM (inactive)
[9]
  GI50: > 100 µM (inactive)
[10]
  GI50: > 100 µM (inactive)
[11]
  GI50: > 100 µM (inactive)
[12]
  GI50: > 100 µM (inactive)
[13]
  GI50: > 100 µM (inactive)
[14]
  GI50: > 100 µM
[15]
  GI50: > 100 µM (inactive)
[17]
  GI50: > 100 µM (inactive)
[18]
  GI50: > 100 µM (inactive)
[19]
  GI50: > 100 µM (inactive)
[20]
  GI50: > 100 µM (inactive)
[21]
  GI50: > 100 µM (inactive)
[22]
  GI50: > 100 µM (inactive)
[23]
  GI50: > 100 µM (inactive)
[24]
  GI50: > 100 µM (inactive)
[25]
  GI50: > 100 µM (inactive)
[26]
  GI50: > 100 µM (inactive)
[27]
  GI50: > 100 µM (inactive)
[29]
  GI50: > 100 µM (inactive)
[30]
  GI50: > 100 µM (inactive)
[31]
  GI50: > 100 µM (inactive)
[32]
  GI50: > 100 µM (inactive)
[33]
  GI50: > 100 µM (inactive)
[34]
  GI50: > 100 µM (inactive)
[36]
  GI50: > 100 µM (inactive)
[37]
  GI50: > 100 µM (inactive)
[38]
  GI50: > 100 µM (inactive)
[39]
  GI50: > 100 µM (inactive)
[40]
  GI50: > 100 µM (inactive)
[41]
  GI50: > 100 µM (inactive)
[42]
  GI50: > 100 µM (inactive)
[43]
  GI50: > 100 µM (inactive)
[44]
  GI50: > 100 µM (inactive)
[45]
  GI50: > 100 µM (inactive)
[46]
  GI50: > 100 µM (inactive)
[47]
  GI50: > 100 µM (inactive)
[48]
  GI50: > 100 µM (inactive)
[49]
  GI50: > 100 µM (inactive)
[50]
  GI50: > 100 µM (inactive)
[51]
  GI50: > 100 µM (inactive)
[52]
  GI50: > 100 µM (inactive)
[53]
  GI50: > 100 µM (inactive)
[55]
  GI50: > 100 µM (inactive)
[56]
  GI50: > 100 µM (inactive)
[57]
  GI50: > 100 µM (inactive)
[58]
  GI50: > 100 µM (inactive)
[59]
  GI50: > 100 µM (inactive)
[60]
  GI50: > 100 µM (inactive)
[61]
  GI50: > 100 µM (inactive)

## CSCCC(NC(=O)C(CC(C)C)NC(=O)C1CCCN1C(=O)C(Cc1ccccc1)NC(=O)C(Cc1ccccc1)NC(=O)C(CCC(=O)O)NC(=O)OC(C)(C)C)C(N)=O (configuration not stated) (Boc-EFFPLM-NH2; configuration not given here)
[1]
  GI50: > 100 µM (inactive)
[2]
  GI50: > 100 µM (inactive)
[5]
  GI50: > 100 µM (inactive)
[6]
  GI50: > 100 µM (inactive)
[7]
  GI50: > 100 µM (inactive)
[8]
  GI50: > 100 µM (inactive)
[9]
  GI50: > 100 µM (inactive)
[10]
  GI50: > 100 µM (inactive)
[12]
  GI50: > 100 µM (inactive)
[13]
  GI50: > 100 µM (inactive)
[15]
  GI50: > 100 µM (inactive)
[17]
  GI50: > 100 µM (inactive)
[18]
  GI50: > 100 µM (inactive)
[20]
  GI50: > 100 µM (inactive)
[21]
  GI50: > 100 µM (inactive)
[24]
  GI50: > 100 µM (inactive)
[25]
  GI50: > 100 µM (inactive)
[26]
  GI50: > 100 µM (inactive)
[27]
  GI50: > 100 µM (inactive)
[29]
  GI50: > 100 µM (inactive)
[30]
  GI50: > 100 µM (inactive)
[31]
  GI50: > 100 µM (inactive)
[32]
  GI50: > 100 µM (inactive)
[33]
  GI50: > 100 µM (inactive)
[34]
  GI50: > 100 µM (inactive)
[37]
  GI50: > 100 µM (inactive)
[40]
  GI50: > 100 µM (inactive)
[42]
  GI50: > 100 µM (inactive)
[43]
  GI50: > 100 µM (inactive)
[45]
  GI50: > 100 µM (inactive)
[46]
  GI50: > 100 µM (inactive)
[47]
  GI50: > 100 µM (inactive)
[49]
  GI50: > 100 µM (inactive)
[50]
  GI50: > 100 µM (inactive)
[52]
  GI50: > 100 µM (inactive)
[53]
  GI50: > 100 µM (inactive)
[54]
  GI50: > 100 µM (inactive)
[59]
  GI50: > 100 µM (inactive)
[60]
  GI50: > 100 µM (inactive)
[61]
  GI50: > 100 µM (inactive)
